Drawing on patent US8981131B2, “Tricyclic compounds for the treatment of inflammatory disorders” (Piramal Enterprises Limited, priority 2007, dated 2015), this text covers IC50 for 17 molecules.

pIC50: −log10 of the molar value. Where a name gives a salt, the structure may show the parent alone.

Conditions in all cases: LPS (1 μg/mL)-stimulated hPBMCs, 5 hours, ELISA
On the technique in general: ELISA stands for enzyme-linked immunosorbent assay.

One test deals with TNF-α. The test can be described thus: TNF-α inhibition in LPS-stimulated human peripheral blood mononuclear cells (primary screening). The test is classed as cell-based. The method, then: (§1) TNF-α production by lipopolysaccharides (LPS) in hPBMCs was measured according to the method described by Jansky, L. et al (Physiol. Res. 52: 593-598, 2003), incorporated herein by reference. Blood was collected from healthy donors into Potassium EDTA vacutainer tubes (BD vacutainer). The PBMCs were isolated using gradient centrifugation in Histopaque-1077 solution (Sigma). Isolated PBMCs were suspended in RPMI 1640 culture medium (Gibco BRL, Pasley, UK) containing 10% fetal bovine serum (FBS) (Hyclone, Utah, USA), 100 U/ml penicillin (Sigma Chemical Co. St Louis, Mo.) and 100 μg/ml streptomycin (Sigma Chemical Co. St Louis, Mo.). The cell concentration was adjusted to 1×10^6 cells/mL. The viability as determined by trypan blue dye exclusion was uniformly ≧98%. The cell suspension (100 μL) was added to the wells of a 96-well culture plate. Following cell plating, 79 μL of the culture medium and 1 μL of eight different concentrations of the test compounds (final concentration 0.03, 0.1, 0.3, 1, 3, 10, 30, 100 μM) dissolved in DMSO (dimethylsulfoxide, Sigma, Mo., USA) were added to the cells. The final concentration of DMSO was adjusted to 0.5%. The vehicle (0.5% DMSO) was used as control. Rolipram (30, 100 μM) was used as a standard compound. The plates were incubated for 30 min at 37° C. in an atmosphere of 5% CO2. Finally, 20 μL (10 μg/mL) per well of LPS, (Escherchia coli 0127:B8, Sigma Chemical Co., St. Louis, Mo.) was added, for a final concentration of 1 μg/mL. The plates were incubated at 37° C. for 5 hours in an atmosphere of 5% CO2. To assess the cytotoxic effect of the test compounds, the cellular viability test was performed using MTS (3-(4,5-dimethylthiazol-2-yl)-5-(3-carboxymethoxyphenyl)-2-(4-sulfonyl)-2H-tetrazolium) reagent after 5 hours of incubation. Supernatants were harvested and assayed for TNF-α, IL-1β, IL-6 and IL-8 by ELISA as described by the manufacturer. (OptiEIA ELISA sets, BD Biosciences, Pharmingen). The 50% inhibitory concentration (IC50) values were calculated by a nonlinear regression method using GraphPad software (Prism 3.03)

The test system of a further test is IL-1β. The test can be described thus: IL-1β released by LPS-stimulated hPBMCs. The test is classed as cell-based, Human. The method, then:
as §1

The next test relates to IL-6. As to the kind of experiment: IL-6 released by LPS-stimulated hPBMCs. The test is classed as cell-based, Human. The method, then:
as §1

A further test relates to IL-8. The test can be described thus: IL-8 released by LPS-stimulated hPBMCs. It is filed as cell-based, Human. The method, then:
as §1

As usually defined, the pIC50 is the negative decadic logarithm of the IC50, by convention in mol/L. In the test with TNF-α (Homo sapiens, PBMC), `CC(=O)OCC1(O)C(=O)O[C@H]2C3=C(C)CCC[C@]3(C)CCC21O` (stereo partly drawn) [Compound of example 3, ((5aR,9bS)-3,3a-Dihydroxy-5a,9-dimethyl-2-oxo-2,3,3a,4,5,5a,6,7,8,9b-decahydronaphtho[1,2-b]furan-3-yl)methyl acetate] showed a pIC50 of 6.30.

On to `CC1=C2[C@@H]3OC(=O)C(CN4CCCCC4)C3(O)CC[C@@]2(C)CCC1` (stereo partly drawn) [Compound of example 17, (5aR,9bS)-3a-Hydroxy-5a,9-dimethyl-3-(piperidin-1-ylmethyl)-3,3a,4,5,5a,6,7,8-octahydronaphtho[1,2-b]furan-2(9bH)-one], for which the pIC50 with TNF-α (Homo sapiens, PBMC) was 6.15; in the test on IL-1β (Homo sapiens) it was 6.59; in the test on IL-6 (Homo sapiens) it was 5.52; with IL-8 (Homo sapiens) it was 4.56.

Take `CC12CCCC3(C)OC13C1OC(=O)C(CN3CCCCC3)C1(O)CC2` (centres unmarked) [Compound of example 18, 13-(Piperidin-1-yl)-4,5-epoxy-7-hydroxyeudesm-6,12-olide]: the negative logarithm of the IC50 (pIC50) with TNF-α is 6.40; in the test with IL-1β it was 6.70; in the test on IL-6, 6.05; in the test on IL-8, 5.04.

`CC1=C2[C@@H]3OC(=O)C(CN4CCOCC4)C3(O)CC[C@@]2(C)CCC1` (stereo partly drawn) [Compound of example 22, (5aR,9bS)-3a-Hydroxy-5a,9-dimethyl-3-(morpholinomethyl)-3,3a,4,5,5a,6,7,8-octahydronaphtho[1,2-b]furan-2(9bH)-one] gave a pIC50 with TNF-α (Homo sapiens, PBMC) of 6.15.

`CC1=C2[C@@H]3OC(=O)C(CN4CC[S+]([O-])CC4)C3(O)CC[C@@]2(C)CCC1` (stereo partly drawn) [Compound of example 25, (5aR,9bS)-3a-Hydroxy-5a,9-dimethyl-3-(thiomorpholino-1-oxide-methyl)-3,3a,4,5,5a,6,7,8-octahydronaphtho[1,2-b]furan-2(9bH)-one]: the pIC50 in the test on TNF-α is 5.48.

For `CC1=C2[C@@H]3OC(=O)C(CN4CCN(Cc5ccccc5)CC4)C3(O)CC[C@@]2(C)CCC1` (stereo partly drawn) [Compound of example 27, (5aR,9bS)-3-((4-Benzylpiperazin-1-yl)methyl)-3a-hydroxy-5a,9-dimethyl-3,3a,4,5,5a,6,7,8-octahydronaphtho[1,2-b]furan-2(9bH)-one], the pIC50 in the test on TNF-α (Homo sapiens, PBMC) was 6.52.

Turning to `CC1=C2[C@@H]3OC(=O)C(CN4CCN(Cc5c(C)cccc5C)CC4)C3(O)CC[C@@]2(C)CCC1` (stereo partly drawn) [Compound of example 30, (5aR,9bS)-3-((4-(2,6-dimethylbenzyl)piperazin-1-yl)methyl)-3a-hydroxy-5a,9-dimethyl-3,3a,4,5,5a,6,7,8-octahydronaphtho[1,2-b]furan-2(9bH)-one], the pIC50 in the test with TNF-α (Homo sapiens, PBMC) was 6.10.

Take `CC1=C2[C@@H]3OC(=O)C(CN4CCN(Cc5ccccc5F)CC4)C3(O)CC[C@@]2(C)CCC1` (stereo partly drawn) [Compound of example 33, (5aR,9bS)-3-((4-(2-fluorobenzyl)piperazin-1-yl)methyl)-3a-hydroxy-5a,9-dimethyl-3,3a,4,5,5a,6,7,8-octahydronaphtho[1,2-b]furan-2(9bH)-one]: the pIC50 with TNF-α (Homo sapiens, PBMC) was 6.52.

The molecule `CC1=C2[C@@H]3OC(=O)C(CN4CCN(Cc5c(F)cccc5C(F)(F)F)CC4)C3(O)CC[C@@]2(C)CCC1` (stereo partly drawn) [Compound of example 36, (5aR,9bS)-3-((4-(2-fluoro-6-(trifluoromethyl)benzyl)piperazin-1-yl)methyl)-3a-hydroxy-5a,9-dimethyl-3,3a,4,5,5a,6,7,8-octahydronaphtho[1,2-b]furan-2(9bH)-one] had a pIC50 in the test with TNF-α (Homo sapiens, PBMC) of 5.96.

Turning to `COc1cc(CN2CCN(CC3C(=O)O[C@H]4C5=C(C)CCC[C@]5(C)CCC34O)CC2)c(CO)c(OC)c1` (stereo partly drawn) [Compound of example 38, (5aR,9bS)-3a-hydroxy-3-((4-(2-(hydroxymethyl)-3,5-dimethoxybenzyl)piperazin-1-yl)methyl)-5a,9-dimethyl-3,3a,4,5,5a,6,7,8-octahydronaphtho[1,2-b]furan-2(9bH)-one], the pIC50 in the test on TNF-α (Homo sapiens, PBMC) is 6.10.

Consider `CCOC(=O)N1CCN(CC2C(=O)O[C@H]3C4=C(C)CCC[C@]4(C)CCC23O)CC1` (stereo partly drawn) [Compound of example 48, Ethyl 4-(((5aR,9bS)-3a-hydroxy-5a,9-dimethyl-2-oxo-2,3,3a,4,5,5a,6,7,8,9b-decahydronaphtho[1,2-b]furan-3-yl)methyl)piperazine-1-carboxylate hydrochloride], for which, in the test on TNF-α (Homo sapiens, PBMC), the pIC50 is 6.15.

For `CC1=C2[C@@H]3OC(=O)C(CN4CCN(c5ccccn5)CC4)C3(O)CC[C@@]2(C)CCC1` (stereo partly drawn) [Compound of example 53, (5aR,9bS)-3a-Hydroxy-5a,9-dimethyl-3-((4-(pyridin-2-yl)piperazin-1-yl)methyl)-3,3a,4,5,5a,6,7,8-octahydronaphtho[1,2-b]furan-2(9bH)-one], the pIC50 in the test with TNF-α (Homo sapiens, PBMC) is 6.10.

For `CC1=C2[C@@H]3OC(=O)C(CN4CCN(CC5C(=O)O[C@H]6C7=C(C)CCC[C@]7(C)CCC56O)CC4)C3(O)CC[C@]2(C)CCC1` (stereo partly drawn) [Compound of example 54, (5aS,9bS)-3a-Hydroxy-3-((4-(((5aR,9bS)-3a-hydroxy-5a,9-dimethyl-2-oxo-2,3,3a,4,5,5a,6,7,8,9b-decahydronaphtho[1,2-b]furan-3-yl)methyl)piperazin-1-yl)methyl)-5a,9-dimethyl-3,3a,4,5,5a,6,7,8-octahydronaphtho[1,2-b]furan-2(9bH)-one], the pIC50 in the test on TNF-α (Homo sapiens, PBMC) is 6.22; in the test with IL-1β (Homo sapiens) it was 6.70; in the test on IL-6 (Homo sapiens) it was 5.68; in the test with IL-8 (Homo sapiens), 4.93.

For the molecule `CC1=C2[C@H]3OC(=O)C(CNCC4C(=O)O[C@H]5C6=C(C)CCC[C@]6(C)CCC45O)C3(O)CC[C@]2(C)CCC1` (stereo partly drawn) [Compound of example 55, (5aS,9bR)-3a-Hydroxy-3-((((5aR,9bS)-3a-hydroxy-5a,9-dimethyl-2-oxo-2,3,3a,4,5,5a,6,7,8,9b-decahydronaphtho[1,2-b]furan-3-yl)methylamino)methyl)-5a,9-dimethyl-3,3a,4,5,5a,6,7,8-octahydronaphtho[1,2-b]furan-2(9bH)-one hydrochloride], the pIC50 is 5.92 in the test on TNF-α (Homo sapiens, PBMC); 6.51 in the test on IL-1β (Homo sapiens); 5.51 in the test on IL-6 (Homo sapiens); 4.54 with IL-8 (Homo sapiens).

As to `COC(=O)CNCC1C(=O)O[C@H]2C3=C(C)CCC[C@]3(C)CCC12O` (stereo partly drawn) [Compound of example 58, Methyl 2-(((5aR,9bS)-3a-hydroxy-5a,9-dimethyl-2-oxo-2,3,3a,4,5,5a,6,7,8,9b-decahydronaphtho[1,2-b]furan-3-yl)methylamino)acetate], the pIC50 in the test on TNF-α (Homo sapiens, PBMC) is 5.70.

As to `CC1=C2[C@@H]3OC(=O)C(CNC4C(O)C(O)C(CO)O[C@H]4O)C3(O)CC[C@@]2(C)CCC1` (stereo partly drawn) [Compound of example 59, (5aR,9bS)-3a-Hydroxy-5a,9-dimethyl-3-(((2R)-2,4,5-trihydroxy-6-(hydroxymethyl)tetrahydro-2H-pyran-3-ylamino)methyl)-3,3a,4,5,5a,6,7,8-octahydronaphtho[1,2-b]furan-2(9bH)-one], in the test on TNF-α (Homo sapiens, PBMC), the pIC50 was 6.40.

As to `CC1=C2[C@@H]3OC(=O)C(CN(C)CC(O)c4ccc(O)cc4)C3(O)CC[C@@]2(C)CCC1` (stereo partly drawn) [Compound of example 60, (5aR,9bS)-3a-Hydroxy-3-(((2-hydroxy-2-(4-hydroxyphenyl)ethyl)(methyl)amino)methyl)-5a,9-dimethyl-3,3a,4,5,5a,6,7,8-octahydronaphtho[1,2-b]furan-2(9bH)-one], the pIC50 in the test with TNF-α (Homo sapiens, PBMC) was 6.70.
